Experimental data: patent publication US7335632B2, “Beta-secretase inhibitors and methods of use thereof” (CoMentis, Inc., priority 2001, dated 2008)

Tests used:
Aβ production = test: Cellular Aβ IC50 determination (Aβ40 sandwich ELISA); assay type: cell-based; settings: Cricetulus griseus, Chinese hamster ovary cells over-expressing human APP695 with London and Swedish mutations, 24 h
Procedure: The potency of compounds against memapsin 2 activity was determined in a cellular assay of Aβ production. […] Chinese hamster ovary cells that over-express human APP695 with the London and Swedish mutations were seeded in multi-well plates at 10% confluency. Compounds were dissolved in DMSO to concentrations near 1 mM, and diluted into culture media to a final concentration near 4 μM (final 0.4% DMSO). Compounds were diluted serially and applied to cells in multi-well plates 48 h after seeding. Incubation was continued in 5% CO2 at 37 degrees C. for 24 h. Aliquots were removed and assayed for Aβ40 content using a sandwich ELISA (BioSource International). Amount of Aβ40 over the range of concentration of compounds, relative to control incubations, were fit to a 4-parameter IC50 model.

Cathepsin D = Cathepsin D (Homo sapiens, UniProt P07339); test: Inhibition of cathepsin D activity (substrate peptide […], MALDI-TOF); assay type: biochemical; settings: pH 4.1, 37 degrees C., substrate NH3-[…]-CO2, MALDI-TOF; read-out: Cath D Ki
memapsin 1 = molecular target: T1, memapsin 1 (Homo sapiens, UniProt Q9Y5Z0); test: Inhibition of memapsin 1 beta-secretase activity (substrate peptide […], MALDI-TOF); assay type: biochemical; settings: pH 4.1, 37 degrees C., substrate NH3-ELDLAVEFWHDR-CO2, MALDI-TOF; read-out: M1 Ki
T1 sequence (Q9Y5Z0 63-518): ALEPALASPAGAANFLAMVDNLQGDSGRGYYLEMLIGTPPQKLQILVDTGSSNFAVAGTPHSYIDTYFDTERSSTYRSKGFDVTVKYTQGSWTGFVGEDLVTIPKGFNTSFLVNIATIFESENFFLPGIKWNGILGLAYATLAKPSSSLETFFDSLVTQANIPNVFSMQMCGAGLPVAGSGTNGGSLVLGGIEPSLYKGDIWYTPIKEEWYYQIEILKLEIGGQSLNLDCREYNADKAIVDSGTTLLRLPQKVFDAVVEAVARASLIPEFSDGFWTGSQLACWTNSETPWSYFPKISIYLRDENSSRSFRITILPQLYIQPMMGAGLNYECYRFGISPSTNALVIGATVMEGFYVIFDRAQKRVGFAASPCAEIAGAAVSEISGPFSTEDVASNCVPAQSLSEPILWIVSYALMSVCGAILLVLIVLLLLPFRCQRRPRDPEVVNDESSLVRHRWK

memapsin 2 = memapsin 2 (Homo sapiens, UniProt P56817); test: Inhibition of memapsin 2 beta-secretase activity toward fluorogenic substrate FS-2; assay type: biochemical; settings: pH 4, 37° C., 20 minutes pre-incubation, substrate FS-2, tight-binding model; read-out: M2 Ki
Procedure: Potency of compounds were determined by measurement of their inhibition of memapsin 2 activity toward a fluorescent substrate. […] Briefly, assays were performed at pH 4, 37° C., by pre-incubation of memapsin 2 enzyme with compound for 20 minutes. Activity measure was initiated by addition of a fluorogenic substrate FS-2 (Bachem Americas, Torrance, Calif.). Fluorescent signal increase over time was measured as a rate of hydrolysis of the peptide substrate.

Sequence of memapsin 2 (P56817 46-501): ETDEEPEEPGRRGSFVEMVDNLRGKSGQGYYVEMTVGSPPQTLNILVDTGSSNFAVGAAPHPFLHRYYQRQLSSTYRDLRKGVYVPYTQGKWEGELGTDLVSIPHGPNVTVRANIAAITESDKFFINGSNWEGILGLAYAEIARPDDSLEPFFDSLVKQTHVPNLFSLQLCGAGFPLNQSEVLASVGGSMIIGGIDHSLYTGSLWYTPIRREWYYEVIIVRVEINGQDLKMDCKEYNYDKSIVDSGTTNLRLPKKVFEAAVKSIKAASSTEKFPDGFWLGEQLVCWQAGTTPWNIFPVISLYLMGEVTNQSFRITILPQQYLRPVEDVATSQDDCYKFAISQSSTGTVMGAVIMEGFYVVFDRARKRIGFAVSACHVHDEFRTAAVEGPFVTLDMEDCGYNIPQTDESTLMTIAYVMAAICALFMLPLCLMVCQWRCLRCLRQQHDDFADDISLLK
Sequence of Cathepsin D (P07339 65-412, species assumed): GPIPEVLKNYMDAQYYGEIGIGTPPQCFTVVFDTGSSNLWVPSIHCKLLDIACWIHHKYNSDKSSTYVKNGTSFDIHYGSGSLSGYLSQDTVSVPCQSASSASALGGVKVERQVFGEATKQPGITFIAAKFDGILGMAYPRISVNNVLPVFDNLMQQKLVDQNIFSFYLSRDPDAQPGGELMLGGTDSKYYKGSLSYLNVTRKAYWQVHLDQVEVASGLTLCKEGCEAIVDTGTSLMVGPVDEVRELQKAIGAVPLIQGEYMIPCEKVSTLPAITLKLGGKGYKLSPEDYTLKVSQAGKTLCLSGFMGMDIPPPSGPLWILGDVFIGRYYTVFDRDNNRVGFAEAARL

SMILES	IC50 (Aβ production) [µM]	Ki (Cathepsin D) [µM]	Ki (memapsin 1) [µM]	Ki (memapsin 2) [µM]
COCCOCS(=O)(=O)C[C@H](NC(=O)OCc1nc(C)cs1)C(=O)N[C@H](CC(C)C)[C@@H](O)C[C@@H](C)C(=O)N[C@@H](C(=O)NCC(C)C)C(C)C [Structure 30]	< 6	0.1 to 1	0.1 to 1	< 0.1
CCc1nc(COC(=O)N[C@@H](CS(C)(=O)=O)C(=O)N[C@H](CC(C)C)[C@@H](O)C[C@@H](C)C(=O)N[C@@H](C(=O)NCC(C)C)C(C)C)c(C)s1 [Structure 71]	> 100	0.1 to 1	0.1 to 1	< 0.1
CCS(=O)(=O)C[C@H](NC(=O)OCc1nc(C)cs1)C(=O)N[C@H](CC(C)C)[C@@H](O)C[C@@H](C)C(=O)N[C@@H](C(=O)NCC(C)C)C(C)C [Structure 22]	< 6	0.1 to 1	0.1 to 1	< 0.1
CCC(CC)S(=O)(=O)C[C@H](NC(=O)OCc1nc(C)cs1)C(=O)N[C@H](CC(C)C)[C@@H](O)C[C@@H](C)C(=O)N[C@@H](C(=O)NCC(C)C)C(C)C [Structure 73]	6 to 100	0.1 to 1	0.1 to 1	< 0.1
Cc1nc(COC(=O)N[C@@H](CS(C)(=O)=O)C(=O)N[C@H](CC(C)C)[C@@H](O)C[C@@H](C)C(=O)N[C@@H](C(=O)NCC(C)C)C(C)C)c(C)s1 [Structure 54]	< 6	0.1 to 1	< 0.1	< 0.1
CSC[C@H](NC(=O)OCc1ccn(C)n1)C(=O)N[C@H](CC(C)C)[C@@H](O)C[C@@H](C)C(=O)N[C@@H](C(=O)NCC(C)C)C(C)C [Structure 93]	6 to 100	< 0.1	0.1 to 1	0.1 to 1
Cc1csc(COC(=O)N[C@@H](CSC(C)C)C(=O)N[C@H](CC(C)C)[C@@H](O)C[C@@H](C)C(=O)N[C@@H](C(=O)NCC(C)C)C(C)C)n1 [Structure 32]	< 6	< 0.1	0.1 to 1	< 0.1
CC[C@@H](Cc1nc(C)cs1)C(=O)N[C@@H](CS(C)(=O)=O)C(=O)N[C@H](CC(C)C)[C@@H](O)C[C@@H](C)C(=O)N[C@@H](C(=O)NCC(C)C)C(C)C [Structure 77]	< 6	< 0.1	0.1 to 1	< 0.1
CC[C@@H](Cc1nc(C)cs1)C(=O)N[C@@H](CSC)C(=O)N[C@H](CC(C)C)[C@@H](O)C[C@@H](C)C(=O)N[C@@H](C(=O)NCC(C)C)C(C)C [Structure 75]	< 6	< 0.1	0.1 to 1	< 0.1
CCC(C)S(=O)(=O)C[C@H](NC(=O)OCc1nc(C)cs1)C(=O)N[C@H](CC(C)C)[C@@H](O)C[C@@H](C)C(=O)N[C@@H](C(=O)NCC(C)C)C(C)C (some centres unmarked) [Structure 67]	> 100	0.1 to 1	0.1 to 1	< 0.1
CCC(CC)SC[C@H](NC(=O)OCc1nc(C)cs1)C(=O)N[C@H](CC(C)C)[C@@H](O)C[C@@H](C)C(=O)N[C@@H](C(=O)NCC(C)C)C(C)C [Structure 72]	< 6	< 0.1	0.1 to 1	< 0.1
CSC[C@H](NC(=O)CCc1nc(C)cs1)C(=O)N[C@H](CC(C)C)[C@@H](O)C[C@@H](C)C(=O)N[C@@H](C(=O)NCC(C)C)C(C)C [Structure 39]	> 100	< 0.1	0.1 to 1	< 0.1
Cc1csc(CCC(=O)N[C@@H](CS(C)(=O)=O)C(=O)N[C@H](CC(C)C)[C@@H](O)C[C@@H](C)C(=O)N[C@@H](C(=O)NCC(C)C)C(C)C)n1 [Structure 40]	> 100	0.1 to 1	0.1 to 1	< 0.1
CCc1nc(COC(=O)N[C@@H](CS(C)(=O)=O)C(=O)N[C@H](CC(C)C)[C@@H](O)C[C@@H](C)C(=O)N[C@@H](C(=O)NCC(C)C)C(C)C)c(C)o1 [Structure 74]	< 6	0.1 to 1	0.1 to 1	< 0.1
